From patent publication US20100249461A1, “TRIARYLAMINE DERIVATIVE” (priority 2007, published 2010)

Legend:
Assay type in all cases: physicochemical
[1] = Light resistance of PMMA film sample (colorant residual rate); conditions: 5% by weight in PMMA film on PET; xenon lamp 170,000 lux, UV cut filter, 170 hours; absorbance after vs before
Experimental: (§1) 2.5 g of PMMA and 0.125 g of the triarylamine derivative were dissolved in 25 ml of dichloromethane, and the solution was coated on a 100 μm-thick PET film. This was dried at 80° C. for 2 hours under reduced pressure to prepare a sample for assessment having a thickness of from 2 to 3 μm. The sample for assessment contained the triarylamine derivative at 5% by weight based on PMMA.
(§2) The sample for assessment obtained above was irradiation-treated for 170 hours with a xenon lamp (170,000 lux, using an UV cut filter). The absorbance of the assessment sample at the maximum absorption wavelength of the triarylamine derivative (colorant) was measured, and a colorant residual rate (%) was obtained as a ratio of the absorbance after irradiation treatment relative to the absorbance before irradiation treatment.

[2] = Solubility in 2-butanone (MEK)
Experimental: Solubility (w/v %) of the triarylamine derivative in 2-butanone (MEK) was measured.

[3] = Wet heat resistance of PMMA film sample (colorant residual rate); conditions: 5% by weight in PMMA film on PET; 60° C. and relative humidity of 90% for 200 hours; absorbance after vs before
Experimental: as §1
as §2, with “subjected to wet heat treatment at 60° C. and a relative humidity of 90%” for “irradiation-treated”, “200 hours.” for “170 hours with a xenon lamp (170,000 lux, using an UV cut filter).”, “wet heat” for “irradiation”

[4] = Heat resistance of PMMA film sample (colorant residual rate); conditions: 5% by weight in PMMA film on PET; 80° C. for 400 hours; absorbance at maximum absorption wavelength after vs before
Experimental: as §1
as §2, with “heat-treated at 80° C.” for “irradiation-treated”, “400 hours.” for “170 hours with a xenon lamp (170,000 lux, using an UV cut filter).”, “heat” for “irradiation”

| Light Resistance (colorant residual rate) [1] | Solubility (w/v) [2] | Wet Heat Resistance (colorant residual rate) [3] | Heat Resistance (colorant residual rate) [4] | Compound |
| --- | --- | --- | --- | --- |
| 98% | 16% w/v % | 45% | 80% | CCCCN(CCCC)c1ccc([N+](=C2C=CC(=[N+](CCCC)CCCC)CC2)c2ccc(N(CCCC)CCCC)cc2)cc1 [drawing 14] |
| 80% | 15% w/v % | 19% | 0% | CCCCN(CCCC)c1ccc([N+](=C2C=CC(=[N+](CCCC)CCCC)CC2)c2ccc(N(CCCC)CCCC)cc2)cc1 [drawing 15] |
